# From ChEMBL document CHEMBL1201862, “PubChem BioAssay data set” (2004)
# Active and inactive are the calls of the source.
# How the values were obtained:
# Fibrinogen beta chain [1] = target: T1, Fibrinogen beta chain (Homo sapiens, UniProt P02675); assay: Fluorescence polarization-based biochemical high throughput dose response assay to identify inhibitors that disrupt the binding of a cyclic peptide (Tn6) to the fibrin proteolytic product D-Dimer and fragment E complex [DD(E )].
# Fibrinogen beta chain [2] = target: T1, Fibrinogen beta chain; assay: Fluorescence polarization-based biochemical high throughput dose response assay to identify inhibitors that disrupt the binding of a cyclic peptide (Tn7) to the fibrin proteolytic product D-Dimer and fragment E complex [DD(E )].
# [3] = NIH-3T3 fibroblast cytotoxicity, dose response, cytotoxicity control, cell-based, fluorescence, Alamar Blue, secondary assay (AID 2327); type: functional;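 also: NIH-3T3 mouse fibroblasts cultured with fluconazole at 8 µg/mL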
# [4] = system: Streptococcus sp. 'group A'; assay: Streptococcus pyogenes SK(-)GAS viability under kanamycin – luminescence, BacTiterGlo, confirmation, counter-screen for streptokinase expression inhibitor project, dose response (AID 1900); type: functional, organism-based
# [5] = target: Luciferin 4-monooxygenase (Photinus pyralis, UniProt P08659); assay: Counter Screen for Luciferase-based Assay Positives. [Related pubchem assays: 620, 618, 411 ]
# Chain of Luciferin 4-monooxygenase (P08659 whole entry): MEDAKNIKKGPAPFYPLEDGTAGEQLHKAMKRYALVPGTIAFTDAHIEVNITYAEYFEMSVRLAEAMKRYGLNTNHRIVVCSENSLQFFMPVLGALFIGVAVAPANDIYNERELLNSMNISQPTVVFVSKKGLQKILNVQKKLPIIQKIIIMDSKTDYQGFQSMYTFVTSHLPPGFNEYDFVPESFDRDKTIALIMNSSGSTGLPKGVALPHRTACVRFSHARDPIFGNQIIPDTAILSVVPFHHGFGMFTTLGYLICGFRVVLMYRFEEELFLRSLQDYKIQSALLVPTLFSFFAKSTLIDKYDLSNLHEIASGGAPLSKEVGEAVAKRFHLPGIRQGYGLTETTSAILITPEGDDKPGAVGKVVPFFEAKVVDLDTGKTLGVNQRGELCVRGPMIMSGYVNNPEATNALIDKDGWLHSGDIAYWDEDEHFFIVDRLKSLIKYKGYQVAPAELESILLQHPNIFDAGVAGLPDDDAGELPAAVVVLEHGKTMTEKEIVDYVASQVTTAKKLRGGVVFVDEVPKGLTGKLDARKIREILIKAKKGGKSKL
# cells [6] = type: functional, cell-based
# [7] = fluconazole-exposed Candida albicans growth modulators – fluorescence, retest, confirmation (AID 2467); type: functional, cell-based
# cells [8] = type: functional, cell-based; remark: listed apart in the source
# HT-1080 = assay: HT1080 cell viability loss – fluorescence readout (AID 620); type: functional, cell-based; conditions: Homo sapiens
# Streptococcus = assay: GAS UMAA2166 growth inhibition – luminescence, BacTiterGlo, counter-screen for streptokinase expression inhibitor project, dose response (AID 1915); type: functional, organism-based;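 also: potency for reduction of bacterial viability or growth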
# Coagulation factor XII = target: T2, Coagulation factor XII (Homo sapiens, UniProt P00748); assay: activated coagulation factor XII inhibitor potency, concentration-effect curve, cell-free (AID 716); type: functional
# T2 sequence (P00748 whole entry): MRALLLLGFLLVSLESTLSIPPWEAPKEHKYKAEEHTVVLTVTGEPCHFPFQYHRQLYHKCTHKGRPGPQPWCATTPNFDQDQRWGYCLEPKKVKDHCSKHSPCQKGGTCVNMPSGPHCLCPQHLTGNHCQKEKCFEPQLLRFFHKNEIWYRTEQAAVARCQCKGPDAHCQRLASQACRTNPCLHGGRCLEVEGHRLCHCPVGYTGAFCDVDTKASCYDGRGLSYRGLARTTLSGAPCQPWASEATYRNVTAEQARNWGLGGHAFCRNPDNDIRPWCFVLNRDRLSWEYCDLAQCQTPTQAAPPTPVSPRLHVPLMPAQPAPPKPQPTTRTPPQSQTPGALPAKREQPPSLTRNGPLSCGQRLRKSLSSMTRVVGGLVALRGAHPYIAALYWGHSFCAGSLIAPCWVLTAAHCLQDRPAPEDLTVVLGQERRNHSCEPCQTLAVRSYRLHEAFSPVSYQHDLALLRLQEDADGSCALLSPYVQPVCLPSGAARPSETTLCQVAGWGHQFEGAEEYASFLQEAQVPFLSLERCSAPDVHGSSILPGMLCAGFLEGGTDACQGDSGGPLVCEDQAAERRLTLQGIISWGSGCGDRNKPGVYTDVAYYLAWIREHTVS
# [9] = target: T3, Microphthalmia-associated transcription factor (Homo sapiens, UniProt O75030); assay: reducers of TRPM1 reporter luminescence, concentration series – cell-based, SK-MEL-5, cherry-picked, set 3, MITF inhibitor project, dose response (AID 493073); type: functional;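 also: SK-MEL-5 melanoma cells with luciferase driven by the MITF target TRPM1 promoter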
# T3 sequence (O75030 whole entry): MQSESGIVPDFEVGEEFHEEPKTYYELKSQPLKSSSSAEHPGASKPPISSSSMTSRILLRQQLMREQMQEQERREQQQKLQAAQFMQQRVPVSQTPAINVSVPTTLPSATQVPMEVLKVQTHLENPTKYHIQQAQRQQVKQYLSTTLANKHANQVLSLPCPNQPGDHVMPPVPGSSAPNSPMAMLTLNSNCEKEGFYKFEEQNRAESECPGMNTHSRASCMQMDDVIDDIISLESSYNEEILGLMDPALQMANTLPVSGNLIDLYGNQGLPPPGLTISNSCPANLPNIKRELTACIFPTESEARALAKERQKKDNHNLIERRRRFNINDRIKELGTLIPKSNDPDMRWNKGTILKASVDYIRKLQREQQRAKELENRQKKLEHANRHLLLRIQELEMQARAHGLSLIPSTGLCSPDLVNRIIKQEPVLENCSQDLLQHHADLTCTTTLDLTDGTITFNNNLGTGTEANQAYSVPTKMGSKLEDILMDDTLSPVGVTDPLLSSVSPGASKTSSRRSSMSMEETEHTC
# [10] = reduction of Shn3 3'UTR-driven luciferase in osteoblasts – cell-based, Clone20 osteoblasts, firefly luciferase, cherry-picked, dose response (AID 624132); type: functional;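 also: firefly luciferase luminescence from reporter carrying the Shn3 3'UTR in osteoblasts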
# [11] = loss of viability in HepG2 cells – cell-based, CellTiter-Glo, cherry-picked, cytotoxicity control for Shn3 inhibitor project, dose response (AID 624134); type: functional
# [12] = non-specific 3'UTR reporter inhibition in Clone20-Shn3RL – cell-based, Renilla luciferase, cherry-picked, counter-screen for Shn3 inhibitor project, dose response (AID 624133); type: functional
# [13] = ATP-based viability loss in HepG2 cells – cell-based, CellTiter-Glo luminescence, dry powder, set 3, cytotoxicity control, dose response (AID 720594); type: functional
# [14] = ATP-based viability loss in HEK293T cells – cell-based, CellTiter-Glo luminescence, dry powder, set 2, cytotoxicity control, dose response (AID 720595); type: functional; conditions: HEK293
# [15] = ATP-based viability loss in HeLa cells – cell-based, CellTiter-Glo luminescence, dry powder, set 2, cytotoxicity control, dose response (AID 720593); type: functional
# [16] = general mammalian cell viability loss – inhibitor set, cherry-pick, set 2, cytotoxicity control for miR-122 modulator project, dose response (AID 720697); type: functional, cell-based
# [17] = general mammalian cell viability loss – activator set, cherry-pick, cytotoxicity control for miR-122 modulator project, dose response (AID 720690); type: functional, cell-based;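 also: HEK293T human cells scored for general mammalian cytotoxicity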
# [18] = L6 myocyte viability loss – cell-based, plate reader, cherry-pick, cytotoxicity control, dose response (AID 651896); type: functional
# [19] = antileishmanial activity on axenic amastigotes – plate reader, cherry pick, dose response (AID 651891); type: functional, cell-based; conditions: Leishmania donovani
# [20] = intracellular Trypanosoma cruzi inhibitors in host cells – cell-based, plate reader, cherry-pick samples, set 3, dose response (AID 651818); type: functional;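 also: compounds incubated with infected cells for about four days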
# [21] = African trypanosome bloodstream form growth inhibition – STIB900 strain, plate reader, cherry pick, dose response (AID 651893); type: functional, cell-based, Trypanosoma brucei rhodesiense; conditions: Trypanosoma brucei
# [22] = antimalarial activity against erythrocytic parasites – NF54 strain, plate reader, dry powder, dose response (AID 651889); type: functional, cell-based
# [23] = host muscle cell viability loss – plate reader, dry powder, counter-screen for T. cruzi inhibitor project, dose response (AID 651895); type: functional, cell-based
# [24] = T. cruzi growth inhibition in host cells, dose response, cell-based, plate reader, dry powder, set 2 (AID 652275); type: functional
# [25] = Trypanosoma cruzi replication inhibitors in host cells – cell-based, plate reader, dry powder samples, dose response (AID 651845); type: functional
# [26] = anti-trypanosomal activity in BESM host cells – imaging, CA-I/72 strain, bovine embryo skeletal muscle, dry powder, dose response (AID 651885); type: functional, cell-based
# [27] = antileishmanial activity on axenic amastigotes – plate reader, dry powder, dose response (AID 651892); type: functional, cell-based
# [28] = intracellular Chagas parasite inhibition in myoblasts – Tulahuen strain, L-6 host cells, dry powder, dose response (AID 651890); type: functional, cell-based
# [29] = African trypanosome bloodstream form growth inhibition – STIB900 strain, plate reader, dry powder, dose response (AID 651894); type: functional, cell-based
# [30] = target: NAD-dependent protein deacylase sirtuin-5, mitochondrial (Homo sapiens, UniProt Q9NXA8); assay: sirtuin-5 deacylation blockers, concentration series – biochemical, fluorescence imaging, cherry-pick, set 5, dose response (AID 720591);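 also: desuccinylation of succinyl peptide AMC substrate read as fluorescence after trypsin release; potency of inhibitors that lower fluorescence and may act on trypsin instead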
# Chain of NAD-dependent protein deacylase sirtuin-5, mitochondrial (Q9NXA8 whole entry): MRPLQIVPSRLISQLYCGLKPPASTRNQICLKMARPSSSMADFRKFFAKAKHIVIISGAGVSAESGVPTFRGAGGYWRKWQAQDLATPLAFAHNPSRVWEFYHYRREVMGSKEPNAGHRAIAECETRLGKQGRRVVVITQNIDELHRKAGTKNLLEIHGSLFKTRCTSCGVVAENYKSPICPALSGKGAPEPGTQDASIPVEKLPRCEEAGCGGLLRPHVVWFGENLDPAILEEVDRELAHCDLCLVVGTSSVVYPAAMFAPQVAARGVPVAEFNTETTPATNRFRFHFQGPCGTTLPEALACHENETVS
# Paired box protein Pax-8 = Paired box protein Pax-8 (Homo sapiens, UniProt Q06710); assay: PAX8 transcriptional activity inhibition in RMG-I – RMG-I cells, luciferase, cherry-pick, dose response (AID 687027); type: functional, cell-based;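 also: luciferase reporter driven by Pax8 target thyroperoxidase promoter measured by SteadyGlo luminescence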
# Chain of Paired box protein Pax-8 (Q06710 whole entry): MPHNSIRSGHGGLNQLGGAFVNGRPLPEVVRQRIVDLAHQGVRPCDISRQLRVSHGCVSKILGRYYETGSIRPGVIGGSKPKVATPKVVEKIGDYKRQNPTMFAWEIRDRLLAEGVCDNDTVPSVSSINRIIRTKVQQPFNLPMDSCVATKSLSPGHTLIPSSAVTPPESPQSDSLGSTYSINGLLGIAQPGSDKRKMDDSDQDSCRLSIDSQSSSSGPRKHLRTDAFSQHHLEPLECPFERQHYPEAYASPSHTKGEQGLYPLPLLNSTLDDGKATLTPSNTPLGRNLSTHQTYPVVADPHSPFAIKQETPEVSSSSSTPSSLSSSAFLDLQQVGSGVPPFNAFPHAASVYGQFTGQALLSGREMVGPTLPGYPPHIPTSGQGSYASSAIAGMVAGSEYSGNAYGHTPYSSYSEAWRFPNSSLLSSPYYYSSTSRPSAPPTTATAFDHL
# [31] = reduced cellular PGC1a acetyl-lysine signal – cell-based, cherry-picked samples, dose response (AID 720514); type: functional;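 also: potency may reflect raised or lowered acetylation signal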
# [32] = OVCAR-3 cell viability loss – plate reader, dry powder samples, PAX8 inhibitor project, dose response (AID 743044); type: functional, cell-based
# [33] = IGROV1 cell killing – plate reader, dry powder samples, PAX8 inhibitor project, dose response (AID 743043); type: functional, cell-based; conditions: IGROV-1
# [34] = general cell-killing toxicity readout – plate reader, dry powder samples, cytotoxicity control for PAX8 inhibitor project, dose response (AID 743021); type: functional, cell-based
# [35] = OVCAR8 cell viability loss – plate reader, dry powder samples, PAX8 project, dose response (AID 743197); type: functional, cell-based; conditions: OVCAR-8
# [36] = P. falciparum Dd2 growth inhibitors, dose response, SYBR Green, cherry-picked samples (AID 1159567); type: functional, cell-based
# [37] = toxicity to human hepatoma HepG2 cells – cell-based, cherry-picked samples, cytotoxicity control, dose response (AID 1159577); type: functional
# [38] = inhibitors acting on PAX2 in cells – cell-based, plate reader, dry powder samples, selectivity assay for PAX8 inhibitor project, dose response (AID 743048); type: functional;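 also: HEK293 cells carrying a WT1 promoter luciferase reporter driven by expressed Pax2; potency is for inhibition of Pax2 driven reporter signal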
# [39] = PAX5 cellular inhibition readout – cell-based, plate reader, dry powder samples, selectivity assay for PAX8 inhibitor project, dose response (AID 743047); type: functional;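 also: HEK293 cells carrying a Pax5 driven CD19 promoter luciferase reporter; potency of inhibitors that lower reporter luminescence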
# [40] = COV434 cell viability loss – plate reader, dry powder, SA7, cytotoxicity control for PAX8 inhibitor project, dose response (AID 743145); type: functional, cell-based
# [41] = OV-90 cell viability loss – plate reader, dry powder, SA8, PAX8 inhibitor project, dose response (AID 743149); type: functional, cell-based
# [42] = PAX8-dependent cell viability loss – plate reader, dry powder, dose response (AID 743049); type: functional, cell-based
# T1 sequence (P02675 whole entry, the tested form may be a part): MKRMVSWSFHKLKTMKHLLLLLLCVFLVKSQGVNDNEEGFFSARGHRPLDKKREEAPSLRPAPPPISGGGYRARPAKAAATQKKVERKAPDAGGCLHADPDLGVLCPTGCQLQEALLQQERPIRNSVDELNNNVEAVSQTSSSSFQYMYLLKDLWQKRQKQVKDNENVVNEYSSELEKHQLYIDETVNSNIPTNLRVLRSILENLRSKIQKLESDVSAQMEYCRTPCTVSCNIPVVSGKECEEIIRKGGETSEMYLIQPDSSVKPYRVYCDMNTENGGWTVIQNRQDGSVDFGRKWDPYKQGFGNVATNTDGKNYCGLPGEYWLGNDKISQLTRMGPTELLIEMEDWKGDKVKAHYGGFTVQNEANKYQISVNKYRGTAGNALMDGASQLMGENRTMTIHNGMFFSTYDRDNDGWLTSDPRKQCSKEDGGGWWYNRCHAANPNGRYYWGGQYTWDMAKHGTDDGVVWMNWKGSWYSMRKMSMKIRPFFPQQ
smiles,measurement,setting,value
Cc1cc2c(cc1S(=O)(=O)N1CCN(c3cccc(C)c3C)CC1)OCCN2C,IC50,Fibrinogen beta chain [1],10.1 µM (inactive)
same,IC50,Fibrinogen beta chain [2],> 83.3 µM (inactive)
CC(C)C(=O)NC(c1ccco1)c1ccc2cccnc2c1O (configuration not stated),EC50,[3],4.72 µM (inconclusive)
same,EC50,[4],3.15 µM (active)
same,EC50,[5],38.8 µM (active)
same,EC50,cells [6],16.5 µM (active)
same,EC50,[7],1.6 µM (active)
same,EC50,cells [8],> 350 µM (not active)
same,EC50,HT-1080,> 50 µM (not active)
same,EC50,Streptococcus,3.87 µM (active)
same,IC50,Coagulation factor XII,> 50 µM (inactive)
same,AC50,[9],8.18 µM (active)
same,AC50,[10],2.05 µM (active)
same,AC50,[11],3.1 µM (active)
same,AC50,[12],4.36 µM (active)
same,AC50,[13],> 52 µM (inactive)
same,AC50,[14],6.24 µM (active)
same,AC50,[15],> 52 µM (inactive)
same,AC50,[16],3.72 µM (active)
same,AC50,[17],5 µM (active)
C[C@@H]1CN([C@H](C)CO)C(=O)c2cccc(NC(=O)c3ccncc3)c2O[C@@H]1CN(C)Cc1ccc(Oc2ccccc2)cc1,IC50,[18],44.2 µM (inactive)
same,IC50,[19],> 100 µM (inactive)
same,AC50,[20],1.05 µM (active)
same,IC50,[21],2.63 µM (inactive)
same,IC50,[22],2.23 µM (inactive)
same,IC50,[23],64.6 µM (inactive)
same,AC50,[24],0.309 µM (active)
same,AC50,[25],0.286 µM (active)
same,IC50,[26],2 µM (active)
same,IC50,[27],> 100 µM (inactive)
same,IC50,[28],1.16 µM (active)
same,IC50,[29],1.31 µM (inactive)
O=C(NC(c1ccc(Cl)cc1)c1cnccn1)C1CCN(Cc2ccc(Cl)cc2)CC1 (configuration not stated),AC50,[30],> 30 µM (inactive)
COc1ccccc1-c1ccc([C@@H]2[C@@H]3CN(S(=O)(=O)c4ccc(-c5ccccc5)cc4)C[C@H]2N3)cc1,AC50,Paired box protein Pax-8,23.3 µM (active)
same,AC50,[31],9.34 µM (active)
same,AC50,[32],33.6 µM (active)
same,AC50,[33],49.5 µM (active)
same,AC50,[34],0.302 µM (active)
same,AC50,[35],56 µM (active)
same,AC50,[36],2.6 µM (active)
same,AC50,[37],10.6 µM (active)
COc1cccc(C#Cc2ccc([C@H]3[C@@H](CO)N(C(=O)c4ccccn4)[C@H]3C#N)cc2)c1,AC50,Paired box protein Pax-8,2.41 µM (active)
same,AC50,[38],9.59 µM (active)
same,AC50,[32],14.6 µM (active)
same,AC50,[39],7.82 µM (active)
same,AC50,[33],17.8 µM (active)
same,AC50,[40],18.4 µM (active)
same,AC50,[41],24.1 µM (active)
same,AC50,[35],51.4 µM (active)
same,AC50,[42],10.4 µM (active)
same,AC50,[36],1.27 µM (active)
same,AC50,[37],> 39 µM (inactive)
